One assay concerns the target c-KIT kinase (uKIT) (Homo sapiens (Human), UniProt P10721). Kind of assay: Biochemical Assay for uKIT (coupled pyruvate kinase/lactate dehydrogenase assay). The settings on record: Inhibition of biochemical activity of uKIT kinase; 1 mM ATP. In a few lines:
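Continuous coupled PK/LDH assay following NADH oxidation at 340 nm for 6 h at 30° C, with 16 nM or 4.36 nM KIT (two constructs), 0.7 mg/mL PE4Y, 1 mM ATP, pH 7.5. Rates from the 2-3 h window converted to percent inhibition versus controls; IC50 fitted.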

The next assay deals with GIST 430 cells. Briefly: GIST 430 Cell Proliferation Assay (resazurin). Format: cell-based. The settings on record: Homo sapiens; GIST430 cell proliferation. As for the experimental part: GIST 430 Cell Proliferation Assay
A serial dilution of test compound was dispensed into a 96-well black clear bottom plate (Corning, Corning, NY). Five thousand cells were added per well in 200 μL complete growth medium. Plates were incubated for 115 h at 37 degrees Celsius, 5% CO2, 95% humidity. At the end of the incubation period 40 μL of a 440 μM solution of resazurin (Sigma, St. Louis, MO) in PBS was added to each well and incubated for an additional 5 h at 37 degrees Celsius, 5% CO2, 95% humidity. Plates were read on a Synergy2 reader (Biotek, Winooski, VT) using an excitation of 540 nm and an emission of 600 nm. Data was analyzed using Prism software (Graphpad, San Diego, CA) to calculate IC50 values.
A general note: Alamar Blue is a resazurin reagent that responds to reducing activity.

For a further assay, the system named is Ba/F3 KIT mutant cells. Kind of assay: Ba/F3 mutant KIT Cell Proliferation Assays (resazurin). It counts as cell-based. The settings on record: Mus musculus, BaF3. In short, it runs like this: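 IC50 values come from resazurin fluorescence (ex 540, em 600) after 5 h dye exposure, added as a 440 μM solution. Cells were IL-3-independent Ba/F3 expressing mutant KIT from a lentiviral vector, puromycin-selected.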

Setting [1] is: Ba/F3 KIT AYdup-V654A mutant cell proliferation, read-out: AYdup-V654A IC50.
The mark [2] stands for this setting: Ba/F3 KIT exon11del-V654A mutant cell proliferation, read-out: exon11del-V654A IC50.
[3] abbreviates: Ba/F3 KIT exon11del-Y823D mutant cell proliferation, read-out: exon11del-Y823D IC50.
Setting [4] is: Ba/F3 KIT AYdup-D816G mutant cell proliferation, read-out: AYdup-D816G IC50.
[5] abbreviates: Ba/F3 KIT AYdup mutant cell proliferation, read-out: AYdup IC50.

Like-named read-outs stand apart in the source and are kept apart here.

c-KIT kinase (uKIT), sequence (P10721 other isoform, or with tags, fused parts or gaps): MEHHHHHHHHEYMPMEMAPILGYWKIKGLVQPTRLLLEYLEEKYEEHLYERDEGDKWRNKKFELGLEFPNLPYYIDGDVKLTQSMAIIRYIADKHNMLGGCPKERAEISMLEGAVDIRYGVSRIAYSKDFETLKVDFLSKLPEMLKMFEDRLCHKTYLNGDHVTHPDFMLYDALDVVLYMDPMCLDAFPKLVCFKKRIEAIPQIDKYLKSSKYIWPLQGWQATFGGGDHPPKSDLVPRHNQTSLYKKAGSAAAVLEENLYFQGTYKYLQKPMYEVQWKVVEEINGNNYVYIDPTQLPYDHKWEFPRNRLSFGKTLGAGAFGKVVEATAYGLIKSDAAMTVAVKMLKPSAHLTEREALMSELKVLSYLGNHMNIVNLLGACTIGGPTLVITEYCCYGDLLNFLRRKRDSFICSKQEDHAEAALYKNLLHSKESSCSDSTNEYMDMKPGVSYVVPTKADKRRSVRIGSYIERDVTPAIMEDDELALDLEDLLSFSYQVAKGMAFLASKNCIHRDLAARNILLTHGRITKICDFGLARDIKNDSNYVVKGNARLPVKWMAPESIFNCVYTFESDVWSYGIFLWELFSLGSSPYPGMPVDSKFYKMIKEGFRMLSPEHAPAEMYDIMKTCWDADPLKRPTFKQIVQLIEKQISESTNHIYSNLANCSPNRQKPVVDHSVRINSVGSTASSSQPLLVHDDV

The term IC50 denotes the point on the concentration scale where inhibition reaches its midpoint. With `COCCOc1cc(F)c2c(Nc3ccc(NC(=O)CC(=O)N4CCCC4C(F)(F)F)cc3)ncnc2c1` (centres unmarked) [Example 169], the IC50 on c-KIT kinase (uKIT) was in the range of 10 to 100 nM; with GIST 430 cells, 10 to 100 nM; in the assay on Ba/F3 KIT mutant cells (setting [1]), 10 to 100 nM; with Ba/F3 KIT mutant cells (setting [2]), 100 to 1000 nM; in the assay with Ba/F3 KIT mutant cells (setting [3]), 100 to 1000 nM.

As to `CC(C)(F)CCNC(=O)Nc1ccc(Nc2ncnc3cc(OC[C@H]4CCOC4)cc(F)c23)cc1` [Example 151], the IC50 at c-KIT kinase (uKIT) was at most 10 nM; with GIST 430 cells, 10 to 100 nM; in the assay on Ba/F3 KIT mutant cells (setting [1]), 10 to 100 nM; in the assay with Ba/F3 KIT mutant cells (setting [2]), 10 to 100 nM; in the assay with Ba/F3 KIT mutant cells (setting [3]), 100 to 1000 nM.

In the case of `COCCOc1cc(OC)c2c(Nc3ccc(NC(=O)NCCC(C)(C)C#N)cc3)ncnc2c1` [Example 182], the IC50 against c-KIT kinase (uKIT), in the assay on GIST 430 cells, with Ba/F3 KIT mutant cells (setting [1]), in the assay on Ba/F3 KIT mutant cells (setting [2]) and in the assay with Ba/F3 KIT mutant cells (setting [3]) was 10 to 100 nM in each case.

As to `COCCOc1cc(F)c2c(Nc3ccc(NC(=O)CNC(=O)C(C)(C)C)cc3)ncnc2c1` [Example 103], the IC50 at c-KIT kinase (uKIT) is 10 to 100 nM; in the assay with GIST 430 cells, at most 10 nM; in the assay on Ba/F3 KIT mutant cells (setting [1]) it was 10 to 100 nM; in the assay on Ba/F3 KIT mutant cells (setting [2]), 10 to 100 nM; in the assay with Ba/F3 KIT mutant cells (setting [3]), 100 to 1000 nM.

For `COCCOc1cc(F)c2c(Nc3ccc(NC(=O)NCCC(C)(C)F)nc3)ncnc2c1` [Example 29], the IC50 is 100 to 1000 nM against c-KIT kinase (uKIT); 100 to 1000 nM in the assay with GIST 430 cells; above 1000 nM in the assay on Ba/F3 KIT mutant cells (setting [4]); above 1000 nM in the assay on Ba/F3 KIT mutant cells (setting [1]); above 1000 nM in the assay on Ba/F3 KIT mutant cells (setting [2]); above 1000 nM in the assay on Ba/F3 KIT mutant cells (setting [3]).

Regarding `COCCOc1cc(F)c2c(Nc3ccc(NC(=O)CC(=O)NCC(C)C)cc3)ncnc2c1` [Example 81], the IC50 against c-KIT kinase (uKIT) was 10 to 100 nM; in the assay on GIST 430 cells, 10 to 100 nM; with Ba/F3 KIT mutant cells (setting [1]), 10 to 100 nM; in the assay on Ba/F3 KIT mutant cells (setting [2]) it was 10 to 100 nM; in the assay on Ba/F3 KIT mutant cells (setting [3]) it was above 1000 nM.

`COCCOc1cc(F)c2c(Nc3ccc(NC(=O)CC(=O)NCCN(C)C)cc3)ncnc2c1` [Example 83]: the IC50 at c-KIT kinase (uKIT), in the assay on GIST 430 cells and in the assay on Ba/F3 KIT mutant cells (setting [2]) was above 1000 nM each time.

For `CC(C)(F)CCNC(=O)Nc1ccc(Nc2ncnc3cc(OC[C@H]4CCCO4)cc(F)c23)cc1` [Example 161], the IC50 at c-KIT kinase (uKIT) was at most 10 nM; in the assay with GIST 430 cells, 10 to 100 nM; with Ba/F3 KIT mutant cells (setting [5]), at most 10 nM; in the assay on Ba/F3 KIT mutant cells (setting [4]), 10 to 100 nM; with Ba/F3 KIT mutant cells (setting [1]), at most 10 nM; with Ba/F3 KIT mutant cells (setting [2]), 10 to 100 nM. In addition, in the assay on Ba/F3 KIT mutant cells (setting [3]), the IC50 fell in the range of 10 to 100 nM.

With `COCCOc1cc(F)c2c(Nc3ccc(NC(=O)CC(=O)NCC4(C#N)CC4)cc3)ncnc2c1` [Example 98], the IC50 against c-KIT kinase (uKIT) is 10 to 100 nM; with GIST 430 cells it was 100 to 1000 nM; in the assay with Ba/F3 KIT mutant cells (setting [1]), 100 to 1000 nM; in the assay with Ba/F3 KIT mutant cells (setting [2]), 10 to 100 nM; with Ba/F3 KIT mutant cells (setting [3]), above 1000 nM.

For `COCCOc1cc(F)c2c(Nc3ccc(NC(=O)C4(C(=O)NCC(C)(C)C)CC4)cc3)ncnc2c1` [Example 44], the IC50 against c-KIT kinase (uKIT) fell in the range of 10 to 100 nM; with GIST 430 cells it was 100 to 1000 nM; in the assay with Ba/F3 KIT mutant cells (setting [5]) it was 10 to 100 nM; in the assay with Ba/F3 KIT mutant cells (setting [4]) it was 100 to 1000 nM; with Ba/F3 KIT mutant cells (setting [1]) it was 100 to 1000 nM; with Ba/F3 KIT mutant cells (setting [2]), 100 to 1000 nM. Moreover, the IC50 in the assay with Ba/F3 KIT mutant cells (setting [3]) is 100 to 1000 nM.

For the molecule `COCCOc1cc(F)c2c(Nc3ccc(NC(=O)NCCC(C)(C)C#N)c(F)c3)ncnc2c1` [Example 105], the IC50 at c-KIT kinase (uKIT) was at most 10 nM; in the assay on GIST 430 cells, at most 10 nM; in the assay with Ba/F3 KIT mutant cells (setting [1]) it was 10 to 100 nM; with Ba/F3 KIT mutant cells (setting [2]), at most 10 nM; in the assay on Ba/F3 KIT mutant cells (setting [3]), 100 to 1000 nM.

As to `COCCOc1cc(F)c2c(Nc3ccc(NC(=O)CC(=O)N4CC(C)(C)C4)cc3)ncnc2c1` [Example 139], the 50% inhibitory concentration (IC50) is 10 to 100 nM at c-KIT kinase (uKIT); 10 to 100 nM in the assay on GIST 430 cells; at most 10 nM with Ba/F3 KIT mutant cells (setting [5]); 10 to 100 nM in the assay with Ba/F3 KIT mutant cells (setting [4]); 10 to 100 nM in the assay with Ba/F3 KIT mutant cells (setting [1]); at most 10 nM in the assay on Ba/F3 KIT mutant cells (setting [2]). Also, in the assay on Ba/F3 KIT mutant cells (setting [3]), the IC50 was above 1000 nM.

Regarding `COCCOc1cc(F)c2c(Nc3ccc(NC(=O)NC4CCC(F)(F)CC4)cc3)ncnc2c1` [Example 33], the half-inhibitory concentration (IC50) is 10 to 100 nM against c-KIT kinase (uKIT); 10 to 100 nM in the assay on GIST 430 cells; 10 to 100 nM in the assay with Ba/F3 KIT mutant cells (setting [4]); 10 to 100 nM with Ba/F3 KIT mutant cells (setting [1]); 100 to 1000 nM in the assay with Ba/F3 KIT mutant cells (setting [2]); 100 to 1000 nM in the assay on Ba/F3 KIT mutant cells (setting [3]).

Values taken from patent publication US20240116877A1, “KIT KINASE INHIBITORS AND METHODS OF USE THEREOF” (Deciphera Pharmaceuticals, LLC, priority 2021, published 2024).
